This passage reports IC50 and Ki results from patent US11130769B2 (Prelude Therapeutics Incorporated, priority 2018, dated 2021).

In one test the test system is H929 cells. The experiment in a line: Cell viability assay (H929 10 FBS). Type of test: cell-based. Conditions: Homo sapiens, NCI-H929, 24 hours, read-out: H929_10FBS IC50. In a few lines: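 ATP-based luminescence (CellTiter-Glo or ATPlite 1 Step, 30-60 min at RT) gauged viability of H929 myeloma cells after 24 h compound treatment at 37 °C. Cells plated at 4000 per well in 10% FBS RPMI 1640 supplemented with pyruvate, HEPES and glucose.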

Another test deals with MCL-1 (Homo sapiens (Human), UniProt Q07820). The experiment in a line: Cell free Mcl-1:Bim affinity assay (fluorescence polarization competition). In kind it is binding. Conditions: 15 nM MCL-1, 5 nM FITC-Bim, 1 hour at room temperature; class symbols; read-out: BIM_Ki. The method in brief:
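Fluorescence polarization competition: 10-point 3-fold compound dilutions displaced 5 nM FITC-Bim from 15 nM MCL-1 over 1 h at room temperature. Ki was derived from the fitted IC50 using the Nikolovska-Coleska equation, with percent inhibition normalized to DMSO and positive controls.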
(Fluorescence polarisation rises when a labelled molecule tumbles more slowly, as on binding a larger partner.)

Chain of MCL-1 (Q07820 whole entry): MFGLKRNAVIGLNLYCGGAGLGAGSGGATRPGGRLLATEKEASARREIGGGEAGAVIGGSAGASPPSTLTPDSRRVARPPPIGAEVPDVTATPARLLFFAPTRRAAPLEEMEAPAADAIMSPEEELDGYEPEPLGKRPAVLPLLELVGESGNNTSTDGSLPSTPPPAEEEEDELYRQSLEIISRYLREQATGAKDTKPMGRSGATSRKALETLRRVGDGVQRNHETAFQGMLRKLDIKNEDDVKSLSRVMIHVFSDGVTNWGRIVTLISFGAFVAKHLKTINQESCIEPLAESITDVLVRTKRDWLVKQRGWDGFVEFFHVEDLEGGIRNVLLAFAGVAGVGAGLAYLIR

One may read the IC50 as the concentration that gives 50% inhibition. Consider `CN1C/C=C/[C@H](OCCN2CC(F)C2)[C@@H]2CC[C@H]2CN2C[C@@]3(CCCc4cc(Cl)ccc43)COc3ccc(cc32)S(=O)(=O)NC(=O)C1(C)C` [Example 275, (3R,6R,7S,8E,22S)-6′-Chloro-7-[2-(3-fluoroazetidin-1-yl)ethoxy]-11,12,12-trimethyl-15,15-dioxo-spiro[20-oxa-15-thia-1,11,14-triazatetracyclo[14.7.2.03,6.019,24]pentacosa-8,16,18,24-tetraene-22,1′-tetralin]-13-one], for which, in the test with H929 cells, the IC50 was less than 500 nM. Further, the Ki on MCL-1 is 1 to 100 nM.
As to `CN1CCN(CCO[C@H]2/C=C/COC(C)(C)C(=O)NS(=O)(=O)c3ccc4c(c3)N(C[C@@H]3CC[C@H]32)C[C@@]2(CCCc3cc(Cl)ccc32)CO4)CC1` [Example 259, (3R,6R,7S,8E,22S)-6′-Chloro-12,12-dimethyl-7-[2-(4-methylpiperazin-1-yl)ethoxy]-15,15-dioxo-spiro[11,20-dioxa-15-thia-1,14-diazatetracyclo[14.7.2.03,6.019,24]pentacosa-8,16,18,24-tetraene-22,1′-tetralin]-13-one], in the test with H929 cells, the IC50 was less than 500 nM. The Ki on MCL-1 was less than 1 nM.
Take `COCCNC(=O)O[C@H]1/C=C/COC(C)(C)C(=O)NS(=O)(=O)c2ccc3c(c2)N(C[C@@H]2CC[C@H]21)C[C@@]1(CCCc2cc(Cl)ccc21)CO3` [Example 191, [(3R,6R,7S,8E,22S)-6′-Chloro-12,12-dimethyl-13,15,15-trioxo-spiro[11,20-dioxa-15-thia-1,14-diazatetracyclo[14.7.2.03,6.019,24]pentacosa-8,16,18,24-tetraene-22,1′-tetralin]-7-yl] N-(2-methoxyethyl)carbamate]: in the test with H929 cells, the IC50 is less than 500 nM. Also, at MCL-1, the Ki was less than 1 nM.
Consider `CO[C@@H]1/C=C/COCC(=O)NS(=O)(=O)c2ccc3c(c2)N(C[C@@H]2CC[C@H]21)C[C@@]1(CCCc2cc(Cl)ccc21)CO3` [Example 112, (3R,6R,7R,8E,22S)-6′-Chloro-7-methoxy-15,15-dioxo-spiro[[11,20]dioxa[15]thia-1,14-diazatetracyclo[14.7.2.03,6.019,24]pentacosa[8,16(25),17,19(24)]tetraene-22,1′-tetralin]-13-one], for which the IC50 with H929 cells was greater than 1000 nM. In addition, the Ki at MCL-1 was 1 to 100 nM.
For the compound `CO[C@@H]1/C=C/COC(C)(C)C(=O)NS(=O)(=O)c2ccc3c(c2)N(C[C@@H]2CC[C@H]21)C[C@@]1(CCCc2cc(Cl)ccc21)CO3` [Example 30, (3R,6R,7R,8E,22S)-6′-Chloro-7-methoxy-12,12-dimethyl-15,15-dioxo-spiro[[11,20]dioxa-15-thia-1,14-diazatetracyclo[14.7.2.03,6.019,24]pentacosa[8,16(25),17,19(24)]tetraene-22,1′-tetralin]-13-one], in the test with H929 cells, the half-inhibitory concentration (IC50) was less than 1000 nM. In addition, at MCL-1, the Ki is less than 1 nM.
The matching figures for `CN(C)C(=O)O[C@H]1/C=C/COC(C)(C)C(=O)NS(=O)(=O)c2ccc3c(c2)N(C[C@@H]2CC[C@H]21)C[C@]1(CO3)OCCc2cc(Cl)ccc21` [Example 250, [(3R,6R,7S,8E,22R)-6′-Chloro-12,12-dimethyl-13,15,15-trioxo-spiro[11,20-dioxa-15-thia-1,14-diazatetracyclo[14.7.2.03,6.019,24]pentacosa-8,16,18,24-tetraene-22,1′-isochromane]-7-yl] N,N-dimethylcarbamate]: less than 500 nM and less than 1 nM.
The matching figures for `COC1CN(C(=O)O[C@H]2/C=C/CN(C)C3(CCC3)C(=O)NS(=O)(=O)c3ccc4c(c3)N(C[C@@H]3CC[C@H]32)C[C@@]2(CCCc3cc(Cl)ccc32)CO4)C1` [Example 238, [(3R,6R,7S,8E,22S)-6′-Chloro-11-methyl-12,12-(1,3-propylene)-13,15,15-trioxo-spiro[20-oxa-15-thia-1,11,14-triazatetracyclo[14.7.2.03,6.019,24]pentacosa-8,16,18,24-tetraene-22,1′-tetralin]-7-yl] 3-methoxyazetidine-1-carboxylate]: less than 500 nM and less than 1 nM.
